Experimental data as given in ChEMBL document CHEMBL4177586, “Small molecule adjuvants that suppress both chromosomal and mcr-1 encoded colistin-resistance and amplify colistin efficacy in polymyxin-susceptible bacteria” (Bioorg Med Chem, 2017).
Values after ≈ are worked out from the molar mass of the structure shown.

Columns and labels:
Acinetobacter baumannii [1] = assay: Potentiation of colistin-induced antimicrobial activity against Acinetobacter baumannii ATCC 17978 expressing mcr1 gene assessed as colistin MIC at 60 uM incubated for overnight duration by CLSI based method (reference value: 16 ug/ml); assay type: functional
Escherichia coli [2] = assay: Potentiation of colistin-induced antimicrobial activity against Escherichia coli YD626 expressing mcr1 gene assessed as colistin MIC at 60 uM incubated for overnight duration by CLSI based method (reference value: 4 ug/ml); assay type: functional
Klebsiella pneumoniae [3] = assay: Potentiation of colistin-induced antimicrobial activity against Klebsiella pneumoniae 2210291 expressing mcr1 gene assessed as colistin MIC at 60 uM incubated for overnight duration by CLSI based method (reference value: 16 ug/ml); assay type: functional
Escherichia coli [4] = assay: Potentiation of colistin-induced antimicrobial activity against Escherichia coli ATCC 25922 expressing mcr1 gene assessed as reduction in colistin MIC at 60 uM incubated for overnight duration by CLSI based method relative to colistin alone control; assay type: functional
Escherichia coli [5] = assay: Potentiation of colistin-induced antimicrobial activity against Escherichia coli YD626 expressing mcr1 gene assessed as reduction in colistin MIC at 60 uM incubated for overnight duration by CLSI based method relative to colistin alone control; assay type: functional
Klebsiella pneumoniae [6] = assay: Potentiation of colistin-induced antimicrobial activity against Klebsiella pneumoniae 2210291 expressing mcr1 gene assessed as reduction in colistin MIC at 60 uM incubated for overnight duration by CLSI based method relative to colistin alone control; assay type: functional
Acinetobacter baumannii [7] = assay: Potentiation of colistin-induced antimicrobial activity against colistin-resistant Acinetobacter baumannii PM3942 assessed as colistin MIC at 60 uM incubated for overnight duration by CLSI based method (reference value: 512 ug/ml); assay type: functional
Acinetobacter baumannii [8] = assay: Potentiation of colistin-induced antimicrobial activity against colistin-resistant Acinetobacter baumannii PM4119 assessed as colistin MIC at 60 uM incubated for overnight duration by CLSI based method (reference value: 1024 ug/ml); assay type: functional
Klebsiella pneumoniae [9] = assay: Potentiation of colistin-induced antimicrobial activity against colistin-resistant Klebsiella pneumoniae C3 assessed as colistin MIC at 60 uM incubated for overnight duration by CLSI based method (reference value: 512 ug/ml); assay type: functional
Klebsiella pneumoniae [10] = assay: Potentiation of colistin-induced antimicrobial activity against colistin-resistant Klebsiella pneumoniae C5 assessed as colistin MIC at 60 uM incubated for overnight duration by CLSI based method (reference value: 128 ug/ml); assay type: functional
Acinetobacter baumannii [11] = assay: Potentiation of colistin-induced antimicrobial activity against colistin-resistant Acinetobacter baumannii PM3941 assessed as colistin MIC at 30 uM incubated for overnight duration by CLSI based method (reference value: 512 ug/ml); assay type: functional
Acinetobacter baumannii [12] = assay: Potentiation of colistin-induced antimicrobial activity against colistin-resistant Acinetobacter baumannii PM3942 assessed as colistin MIC at 30 uM incubated for overnight duration by CLSI based method (reference value: 512 ug/ml); assay type: functional
Acinetobacter baumannii [13] = assay: Potentiation of colistin-induced antimicrobial activity against colistin-resistant Acinetobacter baumannii PM3941 assessed as colistin MIC at 15 uM incubated for overnight duration by CLSI based method (reference value: 512 ug/ml); assay type: functional
Acinetobacter baumannii [14] = assay: Potentiation of colistin-induced antimicrobial activity against colistin-resistant Acinetobacter baumannii PM3942 assessed as colistin MIC at 15 uM incubated for overnight duration by CLSI based method (reference value: 512 ug/ml); assay type: functional
Acinetobacter baumannii [15] = assay: Potentiation of colistin-induced antimicrobial activity against colistin-resistant Acinetobacter baumannii PM4119 assessed as colistin MIC at 15 uM incubated for overnight duration by CLSI based method (reference value: 1024 ug/ml); assay type: functional
Klebsiella pneumoniae [16] = assay: Potentiation of colistin-induced antimicrobial activity against colistin-resistant Klebsiella pneumoniae C5 assessed as colistin MIC at 15 uM incubated for overnight duration by CLSI based method (reference value: 128 ug/ml); assay type: functional
Klebsiella pneumoniae [17] = assay: Potentiation of colistin-induced antimicrobial activity against colistin-resistant Klebsiella pneumoniae C5 assessed as reduction in colistin MIC at 30 uM incubated for overnight duration by CLSI based method relative to colistin alone control; assay type: functional
Klebsiella pneumoniae [18] = assay: Potentiation of colistin-induced antimicrobial activity against colistin-resistant Klebsiella pneumoniae C5 assessed as reduction in colistin MIC at 15 uM incubated for overnight duration by CLSI based method relative to colistin alone control; assay type: functional
Acinetobacter baumannii [19] = assay: Toxicity against multidrug resistant Acinetobacter baumannii BAA1605 incubated for overnight duration by CLSI based method; assay type: organism-based; details: in vivo

Row | SMILES | MIC (Acinetobacter baumannii [1]) | MIC (Escherichia coli [2]) | MIC (Klebsiella pneumoniae [3]) | fold change (FC) (Escherichia coli [4]) | fold change (FC) (Escherichia coli [5]) | fold change (FC) (Klebsiella pneumoniae [6]) | MIC (Acinetobacter baumannii [7]) | MIC (Acinetobacter baumannii [8]) | MIC (Klebsiella pneumoniae [9]) | MIC (Klebsiella pneumoniae [10]) | MIC (Acinetobacter baumannii [11]) | MIC (Acinetobacter baumannii [12]) | MIC (Acinetobacter baumannii [13]) | MIC (Acinetobacter baumannii [14]) | MIC (Acinetobacter baumannii [15]) | MIC (Klebsiella pneumoniae [16]) | fold change (FC) (Klebsiella pneumoniae [17]) | fold change (FC) (Klebsiella pneumoniae [18]) | MIC (Acinetobacter baumannii [19])
1 | CCCCCc1ccc(C(=O)NCCn2cc(CCCCCc3cnc(N)n3Cc3ccc(CCCC)cc3)nn2)cc1 | 0.25 µg/mL | < 0.002 µg/mL | 0.125 µg/mL | 256 | >2048 | 128 | 4 µg/mL | 2 µg/mL | 8 µg/mL | 2 µg/mL | 16 µg/mL | 16 µg/mL | 32 µg/mL | 32 µg/mL | 16 µg/mL | 32 µg/mL | 32 | 4 | 
2 | CCCCCCc1ccc(-c2cn(CC)c(N)n2)cc1 |  |  |  |  |  |  |  |  |  |  |  |  |  |  |  |  |  |  | 200 µM (≈ 54.3 µg/mL)
